biological target: human activated kallikrein enzyme (Homo sapiens, UniProt P03952); assay: Inhibition of human activated plasma kallikrein, fluorogenic PFR-AMC substrate, 500 pM enzyme format; type: biochemical; conditions: 500 pM activated kallikrein; 300 μM PFR-AMC; 30 min preincubation; 10 min room temperature; pH 7.5; read-out: Primary Dose Response Assay: Average EC50
Method: Compounds were evaluated for inhibition of the human activated kallikrein enzyme in two formats of an assay employing a fluorogenic peptide substrate. In one assay format, the concentrations of reagents were as follows: 20 mM Tris pH 7.5, 1 mM EDTA, 150 mM sodium chloride, 0.1% PEG-400, 0.1% Triton X-100, 500 pM activated kallikrein enzyme, 300 μM Pro-Phe-Arg-7-amido-4-methylcoumarin (PFR-AMC) substrate. Prior to reaction initiation with substrate, enzyme and inhibitors were preincubated for 30 min at room temperature. After initiation with substrate, reactions were incubated for 10 min at room temperature and fluorescence emission at 460 nm from 380 nm excitation measured with a microplate reader. In another assay format, the concentrations of reagents were as follows: 20 mM Tris pH 7.5, 1 mM EDTA, 150 mM sodium chloride, 0.1% PEG-400, 0.1% Triton X-100, 5 pM activated kallikrein enzyme, 300 uM PFR-AMC substrate. Prior to reaction initiation with substrate, enzyme and inhibitors were preincubated for 30 min at room temperature. After initiation with substrate, reactions were incubated for 18 hr at room temperature and fluorescence emission at 460 nm from 380 nm excitation measured with a microplate reader.
Table 35 provides the results of the assay in the format with 500 pM activated kallikrein assay.

Chain of human activated kallikrein enzyme (P03952 391-638 limits assumed): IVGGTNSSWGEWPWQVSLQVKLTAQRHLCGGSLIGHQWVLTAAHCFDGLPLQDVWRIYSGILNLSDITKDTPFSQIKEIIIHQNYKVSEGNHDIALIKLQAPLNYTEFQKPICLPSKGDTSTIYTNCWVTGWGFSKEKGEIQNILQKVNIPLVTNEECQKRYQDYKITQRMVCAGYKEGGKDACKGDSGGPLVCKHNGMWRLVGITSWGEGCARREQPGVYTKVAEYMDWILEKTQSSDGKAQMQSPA
Chain of human activated kallikrein enzyme (P03952 20-390 partner limits assumed): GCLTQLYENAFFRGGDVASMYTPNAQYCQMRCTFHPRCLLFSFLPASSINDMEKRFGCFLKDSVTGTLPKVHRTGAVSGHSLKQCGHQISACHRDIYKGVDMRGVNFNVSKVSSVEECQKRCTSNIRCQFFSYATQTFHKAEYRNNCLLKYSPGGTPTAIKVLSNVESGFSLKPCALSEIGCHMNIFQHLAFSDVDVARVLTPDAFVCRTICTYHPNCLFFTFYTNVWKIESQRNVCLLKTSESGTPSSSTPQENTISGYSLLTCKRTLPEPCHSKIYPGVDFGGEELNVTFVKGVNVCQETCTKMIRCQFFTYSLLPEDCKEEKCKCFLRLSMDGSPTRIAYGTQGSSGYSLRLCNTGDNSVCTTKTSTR

Question: Which EC50 does the source give for `Cc1cc2c(N)nccc2c(C)c1CNC(=O)c1cnn(Cc2ccc(CC(=O)N3C[C@@H]4[C@H](CF)[C@@H]4C3)cc2)c1` [Example 206, N-((1-amino-5,7-dimethylisoquinolin-6-yl)methyl)-1-(4-(2-((1R,5S,6s)-6-(fluoromethyl)-3-azabicyclo[3.1.0]hexan-3-y1)-2-oxoethyl)benzyl)-1H-pyrazole-4-carboxamide] here?
Answer: The EC50 was 1 to 10 nM.

Question: Which EC50 does the source give for `Cc1cc2c(N)nccc2c(C)c1CNS(=O)(=O)c1cn(Cc2cn3cc(C4CC4)ccc3n2)nn1` [Example 491, N-((1-amino-5,7-dimethylisoquinolin-6-yl)methyl)-1-((6-cyclopropylimidazo[1,2-a]pyridin-2-yl)methyl)-1H-1,2,3-triazole-4-sulfonamide] here?
Answer: The EC50 was 10 to 100 nM.

Question: With `Cc1cc2c(N)nccc2c(C)c1CNC(=O)c1cnn(Cc2ccc(CC(=O)N3CCOCC3)cc2)c1` [Example 225, N-((1-amino-5,7-dimethylisoquinolin-6-y1)methyl)-1-(4-(2-morpholino-2-oxoethyl)benzyl)-1H-pyrazole-4-carboxamide] as the compound, how does the EC50 read?
Answer: Its EC50 is 1 to 10 nM.

Question: For `Cc1cc2c(N)nccc2c(C)c1CNC(=O)c1cnn(Cc2ccc3cccc(Br)c3n2)c1` [Example 159, N-((1-amino-5,7-dimethylisoquinolin-6-yl)methyl)-1-((8-bromoquinolin-2-yl)methyl)-1H-pyrazole-4-carboxamide], which EC50 is on record?
Answer: The EC50 was 10 to 100 nM.

Question: `Cc1cc2c(N)nccc2c(C)c1CNC(=O)c1cnn(Cc2ccc(CC(=O)N(C)C3CC3)cc2)c1` [Example 224, N-((1-amino-5,7-dimethylisoquinolin-6-yl)methyl)-1-(4-(2-(cyclopropyl(methyl)amino)-2-oxoethyl)benzyl)-1H-pyrazole-4-carboxamide] was tested. Which EC50 did it give?
Answer: Its EC50 is < 1 nM.

Question: Which EC50 does the source give for `Cc1cc2c(N)nccc2c(C)c1CNc1cc(NC(C)c2ccc(Cc3ccccn3)cc2)ncn1` (stereo not drawn) [Example 366, N^4-((1-amino-5,7-dimethylisoquinolin-6-yl)methyl)-N^6-(1-(4-(pyridin-2-ylmethyl)phenyl)ethyl)pyrimidine-4,6-diamine] here?
Answer: The EC50 was < 1 nM.

Question: Which EC50 does the source give for `Cc1cc2c(N)nccc2c(C)c1CNc1cc(OC(C)c2ccc(Cn3cccn3)cc2)cnn1` (stereo not drawn) [Example 275, 6-(((5-(1-(4-((1H-pyrazol-1-yl)methyl)phenyl)ethoxy)pyridazin-3-yl)amino)methyl)-5,7-dimethylisoquinolin-1-amine] here?
Answer: Its EC50 is < 1 nM.

Question: With `Cc1cc2c(N)nccc2c(C)c1CNc1cc(OCc2ccc(Cn3cccc(C4CC4)c3=O)cc2)cnn1` [Example 437, 1-(4-(((6-(((1-amino-5,7-dimethylisoquinolin-6-yl)methyl)amino)pyridazin-4-yl)oxy)methyl)benzyl)-3-cyclopropylpyridin-2(1H)-one] as the compound, how does the EC50 read?
Answer: The EC50 was < 1 nM.

Question: `Cc1cc2c(N)nccc2c(C)c1CNc1cc(OCc2ccc(CN3CCOCC3=O)cc2)cnn1` [Example 434, 4-(4-(((6-(((1-amino-5,7-dimethylisoquinolin-6-yl)methyl)amino)pyridazin-4-yl)oxy)methyl)benzyl)morpholin-3-one] was tested. Which EC50 did it give?
Answer: Its EC50 is < 1 nM.

Question: How did the EC50 turn out when `Cc1cc2c(N)nccc2c(C)c1CNC(=O)c1cnn(Cc2oc3ccccc3c2C)c1` [Example 47, N-((1-amino-5,7-dimethylisoquinolin-6-yl)methyl)-1-((3-methylbenzofuran-2-yl)methyl)-1H-pyrazole-4-carboxamide] was run?
Answer: The EC50 was 10 to 100 nM.

Question: Which EC50 does the source give for `COC(=O)C(c1cn2cc(C)ccc2n1)n1cc(C(=O)NCc2c(C)cc3c(N)nccc3c2C)cn1` (stereo not drawn) [Example 14, methyl 2-(4-(((1-amino-5,7-dimethylisoquinolin-6-yl)methyl)carbamoyl)-1H-pyrazol-1-yl)-2-(6-methylimidazo[1,2-a]pyridin-2-yl)acetate] here?
Answer: The EC50 was 100 to 1000 nM.

Question: How did the EC50 turn out when `Cc1cc2c(N)nccc2cc1CNc1cc(OCc2ccc(Cn3cccn3)cc2)ncn1` [Example 534, 6-(((6-((4-((1H-pyrazol-1-yl)methyl)benzyl)oxy)pyrimidin-4-yl)amino)methyl)-7-methylisoquinolin-1-amine] was run?
Answer: The EC50 was 10 to 100 nM.

Reference: patent US20260374754A1, “N-((ISOQUINOLIN-6-YL)METHYL)-1H-PYRAZOLE-4-CARBOXAMIDE DERIVATIVES AS PLASMA KALLIKREIN INHIBITORS FOR THE TREATMENT OF HEREDITARY ANGIODEMA” (Takeda Pharmaceutical Company Limited, priority 2022, published 2026)
